Active and inactive are the calls of the source. The rule behind the calls is not given here.
Key:
[1] = tested on: HT-29; assay: Anti-necroptic activity in human HT-29 cells assessed as inhibition of TSZ induced necroptosis measured after 16 to 24 hrs by celltiter-glo luminescent cell viability assay; format: functional, cell-based
[2] = target: Receptor-interacting serine/threonine-protein kinase 3 (Homo sapiens) (UniProt Q9Y572); assay: Inhibition of RIPK3 phosphorylation in TSZ-induced human HT-29 cells pretreated with compound followed by TSZ stimulation and measured after 6 hrs by immunoblotting analysis; format: cell-based; conditions: dose 0.5-20 nM, DDE = dose-dependent effect
Sequence of Receptor-interacting serine/threonine-protein kinase 3 (Homo sapiens) (Q9Y572 whole entry, looked up, the tested form may be a part): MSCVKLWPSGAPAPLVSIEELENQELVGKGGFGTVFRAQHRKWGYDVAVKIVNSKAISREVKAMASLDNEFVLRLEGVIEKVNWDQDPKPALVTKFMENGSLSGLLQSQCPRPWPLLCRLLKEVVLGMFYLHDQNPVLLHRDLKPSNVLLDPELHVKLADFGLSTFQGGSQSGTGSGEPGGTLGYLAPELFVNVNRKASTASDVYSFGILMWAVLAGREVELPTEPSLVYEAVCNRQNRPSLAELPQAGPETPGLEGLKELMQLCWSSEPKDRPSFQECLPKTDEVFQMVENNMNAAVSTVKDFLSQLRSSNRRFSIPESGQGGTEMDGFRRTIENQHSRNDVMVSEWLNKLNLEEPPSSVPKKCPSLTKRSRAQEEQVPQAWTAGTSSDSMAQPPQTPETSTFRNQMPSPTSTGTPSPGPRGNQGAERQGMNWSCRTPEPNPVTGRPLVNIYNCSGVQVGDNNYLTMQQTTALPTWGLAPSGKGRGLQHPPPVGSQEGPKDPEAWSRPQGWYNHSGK

[3] = tested on: HT-29; assay: Anti-necroptic activity in human HT-29 cells assessed as inhibition of TCZ induced necroptosis measured after 16 hrs by celltiter-glo luminescent cell viability assay; format: functional, cell-based; conditions: dose 0.781-200 nM, DDE = dose-dependent effect
[4] = target: T1, Receptor-interacting serine/threonine-protein kinase 1 (Homo sapiens, UniProt Q13546); assay: Binding affinity to wild-type human partial length RIPK1 (M1 to K305 residues) expressed in bacterial expression system incubated for 1 hr under shaking condition by Kinomescan method
T1 sequence (Q13546 whole entry): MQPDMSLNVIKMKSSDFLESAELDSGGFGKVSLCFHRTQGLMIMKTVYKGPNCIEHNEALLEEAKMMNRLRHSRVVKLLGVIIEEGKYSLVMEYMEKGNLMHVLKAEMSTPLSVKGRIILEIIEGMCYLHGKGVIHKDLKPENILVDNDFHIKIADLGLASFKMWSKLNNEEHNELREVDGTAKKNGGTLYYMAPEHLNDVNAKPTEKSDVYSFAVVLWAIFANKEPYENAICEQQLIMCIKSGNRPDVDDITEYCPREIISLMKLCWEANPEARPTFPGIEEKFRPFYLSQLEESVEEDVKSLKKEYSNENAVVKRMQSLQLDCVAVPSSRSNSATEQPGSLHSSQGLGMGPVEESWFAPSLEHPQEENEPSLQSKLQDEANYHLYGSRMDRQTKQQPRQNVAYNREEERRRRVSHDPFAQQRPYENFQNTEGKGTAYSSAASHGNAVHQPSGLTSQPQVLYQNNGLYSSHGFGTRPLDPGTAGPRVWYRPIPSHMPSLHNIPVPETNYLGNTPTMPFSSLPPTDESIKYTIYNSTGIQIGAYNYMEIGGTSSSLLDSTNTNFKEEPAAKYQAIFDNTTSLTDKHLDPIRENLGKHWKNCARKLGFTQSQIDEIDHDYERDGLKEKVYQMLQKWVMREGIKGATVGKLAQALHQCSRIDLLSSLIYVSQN

[5] = target: Receptor-interacting serine/threonine-protein kinase 3 (Homo sapiens) (UniProt Q9Y572); assay: Inhibition of RIPK3 phosphorylation in TSZ-induced human HT-29 cells at 5 to 20 nM pretreated with compound followed by TSZ stimulation and measured after 6 hrs by immunoblotting analysis; format: cell-based; conditions: dose 5-20 nM
[6] = target: T2, Receptor-interacting serine/threonine-protein kinase 1 (Homo sapiens) (UniProt Q13546); assay: Inhibition of RIPK1 phosphorylation in TSZ-induced human HT-29 cells pretreated with compound followed by TSZ stimulation and measured after 6 hrs by immunoblotting analysis; format: cell-based; conditions: dose 0.5-20 nM, DDE = dose-dependent effect
T2 sequence (whole entry): T1 sequence (Q13546 whole entry)

[7] = target: T3, Mixed lineage kinase domain-like protein (Homo sapiens) (UniProt Q8NB16); assay: Inhibition of downstream MLKL phosphorylation in TSZ-induced human HT-29 cells at 20 nM pretreated with compound followed by TSZ stimulation and measured after 2 to 6 hrs by immunoblotting analysis; format: cell-based; conditions: time 2-6 hrs
T3 sequence (whole entry): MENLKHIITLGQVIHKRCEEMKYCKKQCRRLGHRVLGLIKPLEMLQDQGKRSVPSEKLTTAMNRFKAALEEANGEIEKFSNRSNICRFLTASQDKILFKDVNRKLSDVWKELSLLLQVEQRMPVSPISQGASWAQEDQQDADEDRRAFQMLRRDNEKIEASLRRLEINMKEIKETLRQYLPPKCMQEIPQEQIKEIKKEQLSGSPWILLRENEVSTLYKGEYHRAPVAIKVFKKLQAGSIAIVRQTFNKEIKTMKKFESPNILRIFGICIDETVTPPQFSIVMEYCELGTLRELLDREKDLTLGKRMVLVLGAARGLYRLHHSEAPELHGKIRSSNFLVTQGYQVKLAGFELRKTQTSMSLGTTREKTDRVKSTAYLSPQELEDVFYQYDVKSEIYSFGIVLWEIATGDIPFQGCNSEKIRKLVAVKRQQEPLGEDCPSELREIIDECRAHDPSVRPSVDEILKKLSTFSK

[8] = target: T2, Receptor-interacting serine/threonine-protein kinase 1 (Homo sapiens); assay: Inhibition of RIPK1 phosphorylation in TSZ-induced human HT-29 cells at 20 nM pretreated with compound followed by TSZ stimulation and measured after 2 to 6 hrs by immunoblotting analysis; format: cell-based; conditions: time 2-6 hrs
[9] = tested on: L929; assay: Anti-necroptic activity in mouse L929 cells assessed as inhibition of TZ induced necroptosis pretreated with compound followed by TZ addition and measured after 12 hrs by celltiter-glo luminescent cell viability assay; format: functional, cell-based; conditions: dose 0.078-10 µM, DDE = dose-dependent effect
[10] = tested on: Mus musculus; assay: Anti-necroptic activity against mTNFalpha induced C57BL/6J mouse systemic inflammatory response syndrome model assessed as survival rate pretreated with compound at 5 to 20 mg/kg, IG administered as single dose followed by mTNFalpha injection and measured over 60 hrs; format: functional; conditions: dose 5-20 mg/kg
[11] = target: T3, Mixed lineage kinase domain-like protein (Homo sapiens); assay: Inhibition of MLKL phosphorylation in TSZ-induced human HT-29 cells pretreated with compound followed by TSZ stimulation and measured after 6 hrs by immunoblotting analysis; format: cell-based; conditions: dose 0.5-20 nM, DDE = dose-dependent effect
[12] = target: T2, Receptor-interacting serine/threonine-protein kinase 1 (Homo sapiens); assay: Inhibition of RIPK1 phosphorylation in TSZ-induced human HT-29 cells at 5 to 20 nM pretreated with compound followed by TSZ stimulation and measured after 6 hrs by immunoblotting analysis; format: cell-based; conditions: dose 5-20 nM
[13] = tested on: HT-29; assay: Anti-necroptic activity in human HT-29 cells assessed as inhibition of TSZ induced necroptosis measured after 12 hrs by celltiter-glo luminescent cell viability assay; format: functional, cell-based; conditions: dose 0.195-200 nM, DDE = dose-dependent effect
[14] = Cytotoxicity against human HT-29 cells assessed as reduction in cell viability; format: toxicity, cell-based
[15] = target: Receptor-interacting serine/threonine-protein kinase 3 (Homo sapiens) (UniProt Q9Y572); assay: Inhibition of RIPK3 phosphorylation in TSZ-induced human HT-29 cells at 20 nM pretreated with compound followed by TSZ stimulation and measured after 2 to 6 hrs by immunoblotting analysis; format: cell-based; conditions: time 2-6 hrs
[16] = target: T3, Mixed lineage kinase domain-like protein (Homo sapiens); assay: Inhibition of MLKL phosphorylation in TSZ-induced human HT-29 cells at 5 to 20 nM pretreated with compound followed by TSZ stimulation and measured after 6 hrs by immunoblotting analysis; format: cell-based; conditions: dose 5-20 nM
[17] = tested on: Mus musculus; assay: Anti-necroptic activity against mTNFalpha-induced systemic inflammatory response syndrome C57BL/6J mouse model assessed as protection of body temperature pretreated with compound at 5 to 20 mg/kg, IG administered as single dose followed by mTNFalpha injection measured after 2 to 3 hrs; format: functional, organism-based; conditions: dose 5-20 mg/kg, time 2-3 hrs
[18] = tested on: U-937; assay: Anti-necroptic activity in human U-937 cells assessed as inhibition of TSZ induced necroptosis pretreated with compound followed by TSZ addition ans measured after 12 hrs by celltiter-glo luminescent cell viability assay; format: functional, cell-based; conditions: dose 0.312-200 nM, DDE = dose-dependent effect
[19] = tested on: HT-29; assay: Inhibition of RIPK1-RIPK3-MLKL pathway in TSZ induced human HT-29 cells assessed as reduction in necrosome formation at 20 nM measured after 6 hrs by Western blot analysis; format: cell-based
[20] = target: T2, Receptor-interacting serine/threonine-protein kinase 1 (Homo sapiens); assay: Inhibition of RIPK1 phosphorylation in TSZ-induced human HT-29 cells at 10 nM pretreated with compound followed by TSZ stimulation and measured after 2 to 6 hrs by immunoblotting analysis; format: cell-based; conditions: time 2-6 hrs
[21] = target: T2, Receptor-interacting serine/threonine-protein kinase 1 (Homo sapiens); assay: Inhibition of RIPK1 phosphorylation in TSZ-induced human HT-29 cells at 2 to 4 nM pretreated with compound followed by TSZ stimulation and measured after 6 hrs by immunoblotting analysis; format: cell-based; conditions: dose 2-4 nM
[22] = tested on: Mus musculus; assay: Anti-necroptic activity against mTNFalpha induced C57BL/6J mouse systemic inflammatory response syndrome model assessed as survival rate pretreated with compound at 15 mg/kg, IG administered as single dose followed by mTNFalpha injection and measured over 60 hrs; format: functional
[23] = target: Receptor-interacting serine/threonine-protein kinase 3 (Homo sapiens) (UniProt Q9Y572); assay: Inhibition of RIPK3 phosphorylation in TSZ-induced human HT-29 cells at 10 nM pretreated with compound followed by TSZ stimulation and measured after 2 to 6 hrs by immunoblotting analysis; format: cell-based; conditions: time 2-6 hrs
[24] = tested on: HT-29; assay: Inhibition of RIPK1-RIPK3-MLKL pathway in TSZ induced human HT-29 cells assessed as reduction in necrosome formation at 10 nM measured after 6 hrs by Western blot analysis; format: cell-based
[25] = target: T3, Mixed lineage kinase domain-like protein (Homo sapiens); assay: Inhibition of MLKL phosphorylation in TSZ-induced human HT-29 cells at 2 to 4 nM pretreated with compound followed by TSZ stimulation and measured after 6 hrs by immunoblotting analysis; format: cell-based; conditions: dose 2-4 nM
[26] = tested on: Mus musculus; assay: Anti-necroptic activity against mTNFalpha induced C57BL/6J mouse systemic inflammatory response syndrome model assessed as survival rate pretreated with compound at 10 mg/kg, IG administered as single dose followed by mTNFalpha injection and measured over 60 hrs; format: functional
[27] = target: T3, Mixed lineage kinase domain-like protein (Homo sapiens); assay: Inhibition of downstream MLKL phosphorylation in TSZ-induced human HT-29 cells at 10 nM pretreated with compound followed by TSZ stimulation and measured after 2 to 6 hrs by immunoblotting analysis; format: cell-based; conditions: time 2-6 hrs
[28] = tested on: Mus musculus; assay: Anti-necroptic activity against mTNFalpha-induced systemic inflammatory response syndrome C57BL/6J mouse model assessed as protection of body temperature pretreated with compound at 5 to 15 mg/kg, IG administered as single dose followed by mTNFalpha injection measured after 2 to 3 hrs; format: functional, organism-based; conditions: dose 5-15 mg/kg, time 2-3 hrs
[29] = target: Receptor-interacting serine/threonine-protein kinase 3 (Homo sapiens) (UniProt Q9Y572); assay: Inhibition of RIPK3 phosphorylation in TSZ-induced human HT-29 cells at 2 to 4 nM pretreated with compound followed by TSZ stimulation and measured after 6 hrs by immunoblotting analysis; format: cell-based; conditions: dose 2-4 nM
[30] = tested on: Mus musculus; assay: Anti-necroptic activity against mTNFalpha induced C57BL/6J mouse systemic inflammatory response syndrome model assessed as survival rate pretreated with compound at 5 mg/kg, IG administered as single dose followed by mTNFalpha injection and measured over 60 hrs; format: functional

CN1C(=S)[C@@H](NC(=O)c2nc(Cc3ccccc3)n(CCF)n2)COc2ccccc21
EC50 [1]: 8.9 nM | inhibition [2]: Dde | Activity [3]: Dde | Kd [4]: 60 nM | inhibition [5]: 100% | inhibition [6]: Dde | inhibition [7]: Active | inhibition [8]: 100% | Activity [9]: Dde | Activity [10]: 90% | inhibition [11]: Dde | inhibition [12]: 100% | Activity [13]: Dde | CC50 [14]: > 100000 nM | inhibition [15]: 100% | inhibition [16]: 100% | Activity [17]: Active | Activity [18]: Dde | inhibition [19]: Active

CN1C(=S)[C@@H](NC(=O)c2nc(Cc3ccccc3)n(C)n2)COc2ccccc21
EC50 [1]: 2.5 nM | inhibition [20]: 100% | inhibition [2]: Dde | inhibition [21]: 100% | Activity [22]: 100% | Activity [3]: Dde | Kd [4]: 31 nM | inhibition [6]: Dde | inhibition [23]: 100% | inhibition [24]: Active | inhibition [25]: 100% | Activity [9]: Dde | inhibition [11]: Dde | Activity [26]: 100% | inhibition [27]: Active | Activity [13]: Dde | CC50 [14]: > 100000 nM | Activity [28]: Active | Activity [18]: Dde | inhibition [29]: 100% | Activity [30]: 70%

From ChEMBL document CHEMBL5143660, “Investigation on the chemical space of the substituted triazole thio-benzoxazepinone RIPK1 inhibitors” (Eur J Med Chem, 2022)
